{
  "source": "patent US9744142B2",
  "about": "“Formulations of volatile anesthetics and methods of use for reducing inflammation” (Board of Regents, The University of Texas Systems, priority 2009, dated 2017)",
  "test": "Isoflurane remaining in uncapped vials over time, determined by weighing (volatility)",
  "type": "physicochemical",
  "details": "uncapped vial",
  "experimental": "In the Examples that follow, the stability of isoflurane in the described compositions was determined in two ways. First, the compositions were examined for the presence of phase separation at the macroscopic level. Secondly, isoflurane content of the compositions was determined by weighing the remaining isoflurane in the composition when they were left uncapped over time. Briefly, glass vials were filled with 5-10 ml of the composition vehicle and then weighed; one of them received only vehicle (i.e., no isoflurane) and served as control. The other vials received varying amounts of isoflurane. They were left uncapped in the hood. Over time, the vials were weighed to see if the isoflurane stayed in the composition or had evaporated. The amount evaporated over time in the vehicle control was subtracted from that in the isoflurane-containing composition.\nThe pure form of isoflurane is a volatile anesthetic. In order to assess the volatility of isoflurane, two vials received the indicated amounts of pure form isoflurane. The vials were placed in the chemical fume hood and left uncapped. The vials were weighed at the indicated times to determine the amount of evaporated isoflurane. As it is shown in the table below 0.7893 g isoflurane was evaporated within 3 hours, while 3.4825 g isoflurane took approximately 8 hrs to evaporate completely. These amounts of isoflurane are similar to the amounts of isoflurane that were used to prepare the isoflurane compositions in the Examples that follow.",
  "data": [
    {"smiles": "FC(F)OC(Cl)C(F)(F)F", "note": "(stereo not shown) [isoflurane]", "values": [
      {"measurement": "time until isoflurane was evaporated", "setting": "pure isoflurane 0.7893 g", "value": "≤ 3", "unit": "h"},
      {"measurement": "time to evaporate completely", "setting": "pure isoflurane 3.4825 g", "value": "approximately 8 hrs"},
      {"measurement": "7 h", "setting": "pure isoflurane 3.4825 g, 7 h, remaining iso as in the neighbouring columns", "value": 13},
      {"measurement": "8 h", "setting": "pure isoflurane 3.4825 g, 8 h, remaining iso as in the neighbouring columns", "value": 3}
    ]}
  ]
}
